Where two headings read alike, the source gives them in different places.
What was measured:
Test in all cases: Cytotoxicity assay of camptothecin derivative toxins (Example A')
Type in all cases: cell-based
[1] = test system: human colon cancer cell line HCT116; conditions: read-out: IC50 (nM) HCT116
Method: (§1) The camptothecin derivatives of the Examples of the present application were serially diluted with DMSO and the corresponding cell culture medium, and were added into a white-walled 96-well plate. Tumor cells (human ovarian cancer cell line SK-OV-3; human colon cancer cell line HCT116; human lung adenocarcinoma cell line A549; human lung adenocarcinoma cell line NCI-H441; human oral epidermoid carcinoma cell line KB) in logarithmic growth phase were digested and adjusted to a density of approximately 3.33×10^4 cells/mL. The cells were plated at 90 µL/well on the white-walled 96-well plate that was pre-loaded with the samples, followed by incubation at 37° C. in a 5% CO2 incubator for 3 days. The growth inhibitory effect of the small molecule compounds on tumor cells was evaluated by the Cell Titer Turbo 2.0 Luminescent Cell Viability Assay (Damas life, RA-GL11). Relative light unit (RLU) values were read from the cell culture plates using a microplate reader. Experimental data were analyzed with GraphPad Prism 8.0 software to calculate IC50 values.

[2] = test system: human ovarian cancer cell line SK-OV-3; conditions: read-out: IC50 (nM) SK-OV-3
Method: as §1

[3] = test system: human lung adenocarcinoma cell line A549; conditions: read-out: IC50 (nM) A549
Method: as §1

[4] = test system: human lung adenocarcinoma cell line NCI-H441; conditions: read-out: IC50 (nM) NCI-H441
Method: as §1

[5] = Homo sapiens, HCT-116, 72 h, Example A', 3 days incubation
[6] = Homo sapiens, A549, 72 h, Example A', 3 days incubation
[7] = Homo sapiens, NCI-H441, 72 h, Example A', 3 days incubation
[8] = Homo sapiens, SK-OV-3, 72 h, Example A', 3 days incubation

## CC[C@@]1(O)C(=O)OCc2c1cc1n(c2=O)Cc2c-1nc1cc3c(cc1c2NCCCCO)OCO3 [STI-F18, (S)-7-ethyl-7-hydroxy-14-((4-hydroxybutyl)amino)-10,13-dihydro-11H-[1,3]dioxolo[4,5-g]pyrano[3′,4′:6,7]indolizino[1,2-b]quinoline-8,11(7H)-dione]
[1]; Homo sapiens, HCT-116, 72 h
  IC50: 58.7 nM
[2]; Homo sapiens, SK-OV-3, 72 h
  IC50: 44.6 nM
[3]; Homo sapiens, A549, 72 h
  IC50: 454 nM
[4]; Homo sapiens, NCI-H441, 72 h
  IC50: 42 nM

## CC[C@@]1(O)C(=O)OCc2c1cc1n(c2=O)Cc2c-1nc1cc(F)c(C)cc1c2N1CCC(CO)CC1 [STI-F14, (S)-4-ethyl-8-fluoro-4-hydroxy-11-(4-(hydroxymethyl)piperidin-1-yl)-9-methyl-1,12-dihydro-14H-pyrano[3′,4′:6,7]indolizino[1,2-b]quinoline-3,14(4H)-dione]
[1]; [5]
  IC50: 12.4 nM
[3]; [6]
  IC50: 156 nM
[4]; [7]
  IC50: 11.1 nM

## CC[C@@]1(O)C(=O)OCc2c1cc1n(c2=O)Cc2c-1nc1cc(F)c(C)cc1c2N[C@H]1CC[C@H](CO)CC1 [STI-F15, (S)-4-ethyl-8-fluoro-4-hydroxy-11-(((1r,4S)-4-(hydroxymethyl)cyclohexyl)amino)-9-methyl-1,12-dihydro-14H-pyrano[3′,4′:6,7]indolizino[1,2-b]quinoline-3,14(4H)-dione]
[1]; Example A', 3 days incubation
  IC50: 22.6 nM
[2]; Example A', 3 days incubation
  IC50: 28.7 nM
[3]; Example A', 3 days incubation
  IC50: 542 nM
[4]; Example A', 3 days incubation
  IC50: 50.9 nM

## CC[C@@]1(O)C(=O)OCc2c1cc1n(c2=O)Cc2c-1nc1cc(F)c(C)cc1c2NCCCCCO [STI-F17, (S)-4-ethyl-8-fluoro-4-hydroxy-11-((5-hydroxypentyl)amino)-9-methyl-1,12-dihydro-14H-pyrano[3′,4′:6,7]indolizino[1,2-b]quinoline-3,14(4H)-dione]
[1]; [5]
  IC50: 17.2 nM
[2]; [8]
  IC50: 20 nM
[3]; [6]
  IC50: 377 nM
[4]; [7]
  IC50: 28.7 nM

## CC[C@@]1(O)C(=O)OCc2c1cc1n(c2=O)Cc2c-1nc1cc(F)c(C)cc1c2NCCO [STI-F5, (S)-4-ethyl-8-fluoro-4-hydroxy-11-((2-hydroxyethyl)amino)-9-methyl-1,12-dihydro-14H-pyrano[3′,4′:6,7]indolizino[1,2-b]quinoline-3,14(4H)-dione]
[1]; [5]
  IC50: 19 nM
[2]; [8]
  IC50: 16.9 nM
[3]; [6]
  IC50: 387 nM
[4]; [7]
  IC50: 32.3 nM

## CC[C@@]1(O)C(=O)OCc2c1cc1n(c2=O)Cc2c-1nc1cc(F)c(C)cc1c2NC/C=C/CO [STI-F8, (S,E)-4-ethyl-8-fluoro-4-hydroxy-11-((4-hydroxybut-2-en-1-yl)amino)-9-methyl-1,12-dihydro-14H-pyrano[3′,4′:6,7]indolizino[1,2-b]quinoline-3,14(4H)-dione]
[1]; [5]
  IC50: 11.4 nM
[2]; [8]
  IC50: 12.3 nM
[3]; [6]
  IC50: 278 nM
[4]; [7]
  IC50: 24.9 nM

Reference: US20260102507A1, “CAMPTOTHECIN DERIVATIVE FOR TREATING OR PREVENTING CANCER AND ANTIBODY-DRUG CONJUGATE THEREOF” (CHENGDU BRILLIANT PHARMACEUTICAL CO., LTD., priority 2023, published 2026)
